Here are results for 3 molecules from patent US20170339949A1, “SUGAR SURFACTANTS AND USE THEREOF IN AGROCHEMICAL COMPOSITIONS” (Clariant International Ltd., priority 2014, published 2017).

Broadly, the pKa is the pH at which an ionisable group is half protonated.

The conditions of series [1]: weak organic acid; cited from earlier work.
The nature of series [2]: Dynamic surface tension (Krüss PocketDyne BP2100). As to conditions: for Surface tension: 24.6° C. Format: physicochemical. From the text:
In the case of plants that are difficult to wet, such as the cereal plants wheat, barley, triticale, rye and oats, in the case of further large-scale crops corn, rice, soya and oilseed rape, and also in the case of almost all weed grasses and numerous dicotyledonous weeds that are difficult to control, such as Chenopodium album or Euphorbium heterophyllum, the promotion of the adsorption of the spray liquid on the green parts of the plant is of crucial significance. This wetting agent effect was therefore also determined for the glucamides.
For a given application technique or parameters (nozzle, pressure, water application rate, distance from the plant surface), the value for the dynamic surface tension in [mN/m] correlates well with the adhesion on plants that are difficult to wet such as barley (or cereals in general) and weed grasses. A value of 50 mN/m (at 20-21° C.) with respect to water (72.8 mN/m) results in an improvement in the adhesion from “zero adhesion” to about 50% (Baur P, Pontzen R 2007. Basic features of plant surface wettability and deposit formation and the impact of adjuvants. In: R E Gaskin ed. Proceeding of the 8th International Symposium on Adjuvants for Agrochemicals. Publisher: International Society for Agrochemical Adjuvants (ISAA), Columbus, Ohio, USA). A value below 60 mN/m at 200 ms gives visibly better adsorption of aqueous spray liquids; in the case of standard flat jet nozzles, optimal wetting is achieved.
The values for dynamic surface tension (Krüss PocketDyne BP2100, T 24.6° C.) are shown below at for the linear C810 glucamide and the decene glucamide and a pelargonamide.

The next series has as its system apple leaf cuticles. The series can be described thus: Membrane penetration test with apple leaf cuticles for mesotrione. The class given is in vitro ADME. As to conditions: summary in words of Table 1. From the text:
Increasing the absorption of systemic active ingredients using the example of mesotrione and test system for measurement of the promotion of penetration of active ingredients
Surfactants can promote the absorption of (active) ingredients through membranes such as skin, films or the plant cuticle. As a “finite-dose” application, it is known for the single administration or application of a solution, cream, gel etc. to a membrane that the absorption of active ingredient can be influenced by some additives such as surfactants even after wetting. This effect is independent of the interfacial effect in water, is often highly concentration-dependent and takes place for the most part after evaporation of water and any solvents present rather than as a result of the interaction, for example, with active ingredient, membrane and environmental factors. […]
The potential of the test substances, which is independent of the surfactant action, to promote foliar absorption of active agrochemical ingredients was determined in membrane penetration tests with apple leaf cuticles for mesotrione. […] At regular intervals, aliquot samples were taken and the proportion of active ingredient penetrated was determined by HPLC. During the experiment, the temperature in the system (block, diffusion cells, liquids, etc.) and the air humidity above the spray coating on the cuticle were known exactly and were monitored. […]

As for `CS(=O)(=O)c1ccc(C(=O)C2C(=O)CCCC2=O)c([N+](=O)[O-])c1` [Mesotrione, mesotrione], the pKa in series [1] is given as 3.1.

For the molecule `C=CCCCCCCCC(=O)N(C)C[C@H](O)[C@@H](O)[C@H](O)[C@H](O)CO` [N-Methyl-N-dec-9-enoylglucamine, N-methyl-N-dec-9-enoylglucamine], the Surface tension in series [2] (conc. 0.6 g/L, 20 ms) amounted to 70.2 mN/m; in series [2] (conc. 0.6 g/L, 50 ms) it was 68.9 mN/m; in series [2] (conc. 0.6 g/L, 100 ms) it was 67.6 mN/m; in series [2] (conc. 0.6 g/L, 200 ms), 67.4 mN/m; in series [2] (conc. 1.25 g/L, 20 ms), 66.4 mN/m; in series [2] (conc. 1.25 g/L, 50 ms), 63.7 mN/m. The Surface tension in series [2] (conc. 1.25 g/L, 100 ms) is given as 61.8 mN/m; in series [2] (conc. 1.25 g/L, 200 ms) it was 61.0 mN/m; in series [2] (conc. 2.5 g/L, 20 ms), 59.7 mN/m; in series [2] (conc. 2.5 g/L, 50 ms), 56.6 mN/m; in series [2] (conc. 2.5 g/L, 100 ms) it was 55.5 mN/m; in series [2] (conc. 2.5 g/L, 200 ms), 54.1 mN/m. Moreover, the Surface tension in series [2] (conc. 5 g/L, 20 ms) was 50.5 mN/m; in series [2] (conc. 5 g/L, 50 ms), 48.3 mN/m; in series [2] (conc. 5 g/L, 100 ms) it was 47.7 mN/m; in series [2] (conc. 5 g/L, 200 ms) it was 46.6 mN/m. In series [2] (summary in words of dynamic surface tension results), the “Suitability as wetting agent compared to Synergen GA (C810)” value was “wetting agent of comparable suitability”. Also, the “Promotion of penetration of mesotrione compared to the linear mixture of C8 and C10 glucamide” value with apple leaf cuticles is recorded as “higher promotion of penetration of mesotrione”.

Consider `CCCCCCCCC(=O)N(C)C[C@H](O)[C@@H](O)[C@H](O)[C@H](O)CO` [N-Methyl-N-nonanoylglucamine, N-methyl-N-nonanoylglucamine], for which the Surface tension in series [2] (conc. 0.6 g/L, 20 ms) came out at 70.2 mN/m; in series [2] (conc. 0.6 g/L, 50 ms), 68.8 mN/m; in series [2] (conc. 0.6 g/L, 100 ms), 67.7 mN/m; in series [2] (conc. 0.6 g/L, 200 ms), 67.1 mN/m; in series [2] (conc. 1.25 g/L, 20 ms), 66.0 mN/m; in series [2] (conc. 1.25 g/L, 50 ms) it was 63.7 mN/m. The Surface tension amounted to 62.6 mN/m in series [2] (conc. 1.25 g/L, 100 ms); 61.1 mN/m in series [2] (conc. 1.25 g/L, 200 ms); 59.1 mN/m in series [2] (conc. 2.5 g/L, 20 ms); 56.3 mN/m in series [2] (conc. 2.5 g/L, 50 ms); 55.3 mN/m in series [2] (conc. 2.5 g/L, 100 ms); 53.8 mN/m in series [2] (conc. 2.5 g/L, 200 ms). Moreover, the Surface tension was 47.7 mN/m in series [2] (conc. 5 g/L, 20 ms); 45.6 mN/m in series [2] (conc. 5 g/L, 50 ms); 45.2 mN/m in series [2] (conc. 5 g/L, 100 ms); 44.3 mN/m in series [2] (conc. 5 g/L, 200 ms). Further, the “Promotion of penetration of mesotrione compared to the linear mixture of C8 and C10 glucamide” value in the series on apple leaf cuticles is given as “likewise falls short”.
